ChEMBL document CHEMBL3352719 (Bioorg Med Chem, 2014)

Experiments:
cells = details: Influenza A virus, MDCK, 48 h
[1] = Cytotoxicity against human 293T cells after 48 hrs by CellTiter96 assay; type: cell-based, HEK-293T
[2] = Cytotoxicity against MDCK cells after 48 hrs by CellTiter96 assay; type: cell-based, Canis lupus familiaris; details: dog

| SMILES | EC50 (cells) [µM] | CC50 at 48 h [1] [µM] | CC50 at 48 h [2] [µM] |
| --- | --- | --- | --- |
| CCC(CC)O[C@@H]1C=C(C(=O)NO)C[C@H](N)[C@H]1NC(C)=O | 0.359 | – | – |
| CCC(CC)O[C@@H]1C=C(C(=O)NOC)C[C@H](N)[C@H]1NC(C)=O | 0.127 | – | – |
| CCC(CC)O[C@@H]1C=C(C(=O)NOCc2ccccc2)C[C@H](N)[C@H]1NC(C)=O | 0.0724 | – | – |
| CCC(CC)O[C@@H]1C=C(C(=O)NOCCCc2cc3ccccc3[nH]2)C[C@H](N)[C@H]1NC(C)=O | 0.0601 | – | – |
| CCC(CC)O[C@@H]1C=C(C(=O)NOC)C[C@H](NC(=N)N)[C@H]1NC(C)=O | 0.0717 | > 100 | > 100 |
| CCC(CC)O[C@@H]1C=C(C(=O)NOCc2ccccc2)C[C@H](NC(=N)N)[C@H]1NC(C)=O | 0.0238 | – | – |
| CCC(CC)O[C@@H]1C=C(C(=O)NOCCCc2cc3ccccc3[nH]2)C[C@H](NC(=N)N)[C@H]1NC(C)=O | 0.0907 | > 100 | > 100 |
| CCC(CC)O[C@@H]1C=C(C(=O)NS(C)(=O)=O)C[C@H](N)[C@H]1NC(C)=O | 0.401 | – | – |
| CCC(CC)O[C@@H]1C=C(C(=O)NS(=O)(=O)C(F)(F)F)C[C@H](N)[C@H]1NC(C)=O | 2.22 | – | – |
| CCCCS(=O)(=O)NC(=O)C1=C[C@@H](OC(CC)CC)[C@H](NC(C)=O)[C@@H](N)C1 | 1.98 | – | – |
| CCC(CC)O[C@@H]1C=C(C(=O)NS(=O)(=O)c2ccccc2)C[C@H](N)[C@H]1NC(C)=O | 7.49 | – | – |
| CCC(CC)O[C@@H]1C=C(C(=O)NS(C)(=O)=O)C[C@H](NC(=N)N)[C@H]1NC(C)=O | 0.0591 | > 100 | > 100 |
| CCC(CC)O[C@@H]1C=C(C(=O)NS(=O)(=O)C(F)(F)F)C[C@H](NC(=N)N)[C@H]1NC(C)=O | 0.484 | – | – |
| CCCCS(=O)(=O)NC(=O)C1=C[C@@H](OC(CC)CC)[C@H](NC(C)=O)[C@@H](NC(=N)N)C1 | 0.261 | – | – |
| CCC(CC)O[C@@H]1C=C(C(=O)NS(=O)(=O)c2ccccc2)C[C@H](NC(=N)N)[C@H]1NC(C)=O | 0.593 | – | – |
| CCC(CC)O[C@@H]1C=C(C(=O)O)C[C@H](N)[C@H]1NC(C)=O [OSELTAMIVIR CARBOXYLATE] | 0.0282 | – | – |
